From PubChem BioAssay (NCI) come the findings set out here.

The structures appear in SMILES notation. “And” between values parts separate entries of the source, which are not always exact repeats. Identical values can stand only once.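 Cells were grown in 96-well plates and exposed to each compound for 48 hours at five concentrations; endpoints were interpolated linearly between bracketing concentrations, or set to the highest concentration if not reached. At the GI50, growth is halved. TGI: concentration producing complete growth inhibition.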

Holding throughout (test): NCI tumour cell line growth inhibition, 48 h
For assay [1], the system named is HL-60(TB) leukemia.
Assay [2] concerns MALME-3M melanoma.
The subject of assay [3] is 786-0 renal.
Assay [4] has as its system OVCAR-4 ovarian.
In assay [5] the test system is SN12C renal.
Assay [6] deals with MCF7 breast.
Assay [7] relates to RXF 393 renal.
The subject of assay [8] is NCI/ADR-RES ovarian.
Assay [9] concerns CAKI-1 renal.
Assay [10] concerns HCT-116 colon.

Turning to `COCC(C(=O)OC1C/C=C/C=C/C(=O)OC(C(C)C(O)C(C)CCC(OC(=O)C(C)N(C)C)C(C)C(OC(C)=O)C(C)/C=C/N(C)C=O)C/C=C/C(OC)CC(C)C/C=C(\C)C(OC)CCC(C)C(O)C1C)N(C)C` (stereo not drawn), the GI50 in assay [1] is less than 0.0001 µM; in [2] it was less than 0.0001 µM; in [3], less than 0.0001 µM; in [4], 0.00537 µM; in [5] it was less than 0.0001 µM; in [6], less than 0.0001 µM. Also, the GI50 in assay [7], in assay [8], in assay [9] and in assay [10] was less than 0.0001 µM in each case. In addition, the TGI in assay [1] is less than 0.0001 µM; in assay [2], 0.0225 µM; in assay [3], 0.000845 µM; in assay [4], more than 0.281 µM; in assay [5], 0.105 µM; in assay [6] it was 0.06 µM. Also, the TGI in assay [7] stood at 0.0177 µM; in [8], 0.000552 µM; in [9], 0.007 µM; in [10] it was 0.00687 µM.

Turning to `COc1cc2ncnc(Oc3cccc(NC(=O)Nc4cc(C(C)(C)C(F)(F)F)on4)c3)c2cc1OC`, the GI50 was 2.7 µM and 0.816 µM in assay [1]; 0.0645 µM and 0.0851 µM in [2]; 2.58 µM and 4.44 µM in assay [3]; 2.15 µM and 2.8 µM in assay [4]; 1.61 µM and 1.69 µM in assay [5]; 2.79 µM and 3.18 µM in assay [6]. Further, the GI50 in [7] is 2.16 µM and 2.68 µM; in assay [8], 2.99 µM and 2.86 µM; in [9], 1.06 µM and 1.44 µM; in assay [10], 0.618 µM and 0.843 µM. The TGI was more than 28.5 µM in assay [1]; 0.929 µM and 1.17 µM in [2]; 14.7 µM and > 10 µM in [3]; more than 100 µM in assay [4]; 11.9 µM and > 10 µM in assay [5]; 15 µM and > 10 µM in [6]. The TGI in assay [7] was 8.14 µM and > 10 µM; in assay [8], 24.6 µM and > 10 µM; in assay [9] it was more than 43 µM; in assay [10], 11 µM and > 10 µM.

Turning to `COc1ccc2c(c1)C(=O)c1c-2c(OCCN(C)C)nc2cc(OC)c(OC)cc12`, the GI50 was 51.6 µM in assay [1]; 12.1 µM in [2]; 13 µM in assay [3]; 2.81 µM in assay [4]; 2.72 µM in assay [5]; 0.271 µM in assay [6]. The GI50 was 4.48 µM in [7], 4.58 µM in assay [8], 3.68 µM in assay [9] and 1.08 µM in assay [10]. Moreover, the TGI in assay [1] was more than 100 µM; in assay [2], 28.3 µM; in assay [3], 27.2 µM; in assay [4], more than 100 µM; in assay [5] it was more than 100 µM; in [6] it was 14.9 µM. Further, the TGI in assay [7] is 18.6 µM; in assay [8], 42.3 µM; in assay [9] it was 31.6 µM; in [10], 19.6 µM.

Regarding `CCCCCC[C@H]1C(=O)O[C@H](C)[C@H](NC(=O)c2cccc(NC=O)c2OC)C(=O)O[C@@H](C)[C@@H]1OC(=O)CCC` (tested in a mixture with another compound), the GI50 is 4.68 µM in assay [1]; 15.3 µM in assay [2]; 13.1 µM in assay [3]; 12.7 µM in assay [4]; 16.2 µM in assay [5]; 33.4 µM in [6]. Also, the GI50 is 15.3 µM in assay [7], 8.63 µM in [8], 9.71 µM in assay [9] and 9.89 µM in assay [10]. Besides, the TGI was 19.9 µM in [1]; 41.2 µM in assay [2]; 27.1 µM in [3]; 29 µM in assay [4]; 37.1 µM in assay [5]; more than 100 µM in assay [6]. The TGI in assay [7] is 32.4 µM; in assay [8], 34.2 µM; in [9] it was 24.4 µM; in [10], 24.3 µM.

With `NCCCN=c1ccc2c3c1c(O)c1c(O)ccc(=O)c1c3[nH]n2CCNCCO`, the GI50 in assay [1] is 0.665 µM and 0.556 µM; in assay [3], 0.723 µM; in [5] it was 0.413 µM and 0.391 µM; in [6] it was 0.796 µM; in [7], 3.03 µM and 1.21 µM; in [8] it was 20.1 µM. For the same molecule, the GI50 is 1.1 µM and 0.528 µM in assay [9]; 2.06 µM and 1.46 µM in [10]. Also, the TGI is 1.7 µM and 9.33 µM in assay [1]; 6 µM in assay [2]; 11.4 µM and 5.28 µM in [3]; 10.5 µM and 20.1 µM in assay [4]; 6.15 µM and 10.2 µM in assay [5]; 21.5 µM and 11.2 µM in assay [6]. The TGI in [7] is 8.38 µM and 5.39 µM; in assay [8], 25 µM and > 236 µM; in [9], 11.2 µM and 3.84 µM; in [10] it was 9.67 µM and 20.2 µM.
